# In patent publication US20040028675A1, “Compositions for the treatment of lupus” (Zarlink Semiconductor AB, priority 2001, published 2004):
# Tests used:
# [1] = test system: patients with Lupus (Systemic Lupus Erythematosus); test: Treatment of patients with Lupus (SLE) with the inventive composition
# Kv1.3 channel [2] = biological target: T1, Kv1.3 channel (Homo sapiens, UniProt P22001); test: Screening tests of ion channel function; settings: screening tests by experts in ion channel function
# T1 sequence (P22001 whole entry): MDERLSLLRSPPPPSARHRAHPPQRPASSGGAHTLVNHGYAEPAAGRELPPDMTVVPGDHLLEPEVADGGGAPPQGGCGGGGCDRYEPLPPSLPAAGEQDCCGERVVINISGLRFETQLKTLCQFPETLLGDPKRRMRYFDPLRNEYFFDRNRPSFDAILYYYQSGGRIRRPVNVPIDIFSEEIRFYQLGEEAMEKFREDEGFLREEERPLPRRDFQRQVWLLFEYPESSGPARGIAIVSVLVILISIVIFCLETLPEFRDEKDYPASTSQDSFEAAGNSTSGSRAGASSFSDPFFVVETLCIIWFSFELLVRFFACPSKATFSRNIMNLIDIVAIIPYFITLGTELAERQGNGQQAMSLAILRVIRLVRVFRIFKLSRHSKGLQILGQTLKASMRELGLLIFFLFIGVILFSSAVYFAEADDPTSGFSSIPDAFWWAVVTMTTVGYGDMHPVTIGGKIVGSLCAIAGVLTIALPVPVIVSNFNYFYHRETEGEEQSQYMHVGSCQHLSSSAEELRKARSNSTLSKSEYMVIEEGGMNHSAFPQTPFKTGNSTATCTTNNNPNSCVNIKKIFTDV
# Kv1.3 channel [3] = biological target: T1, Kv1.3 channel; settings: independently demonstrated; cited from earlier work
# [4] = test system: patients with Lupus (Systemic Lupus Erythematosus); settings: osteoarthritis or Lupus caused joint inflammation; cited from earlier work
compound,measurement,setting,value
O=c1cc(-c2ccc(O)c(O)c2)oc2cc(O)cc(O)c12 [Luteolin],effectiveness of the bioflavonoid in the inventive formula (in place of Quercetin),[1]; limited tests,somewhat more effective than Quercetin
same,effectiveness in tests of ion channel function,Kv1.3 channel [2],even more effective than Quercetin
O=c1c(O)c(-c2cc(O)c(O)c(O)c2)oc2cc(O)cc(O)c12 [Myricetin],effectiveness of the bioflavonoid in the inventive formula (in place of Quercetin),"[1]; human, in vivo",somewhat effective
O=c1c(O)c(-c2ccc(O)c(O)c2)oc2cc(O)cc(O)c12 [Quercetin],modulating the conduction by the Kv1.3 potassium channel,Kv1.3 channel [3],very effective
same,effectiveness in tests of ion channel function,Kv1.3 channel [2],very effective
Bromelain,"ameliorating joint pain, Bromelain alone",[4],not effective
